Experimental data from US20240374626A1, “METHODS OF ENHANCING MILK PRODUCTION IN LACTATING MAMMALIAN SUBJECTS” (priority 2023, published 2024).

Assays:
γH2AX = experiment: Contralateral intraductal injection: γH2AX IHC in CK8+ luminal cells of MG; format: in vivo, mouse; settings: doxorubicin IDI (1.5 μg per gland) at PD12.5 vs contralateral DMSO vehicle, 24 h post-injection (PD13.5)
Procedure: Nulliparous analysis was performed using adult (10-12-week-old) female mice. For timed pregnancies and lactation analysis, CD-1 pregnant adult females were obtained from Charles Rivers. Embryos were examined at the time of mammary gland harvesting to confirm pregnancy state. […] Plugged mice were considered to be PD0.5 on the day of the observed plug. All females used in this study were age matched.
Mice were anesthetized with isoflurane (VetOne, 501017) Prior to intraductal injections, hair was removed from around the nipples using Nair hair remover. Injections into the duct of the nipple were performed with 33 G needles (Hamilton, 7803-05) and a volume of 40 μl per gland. Right inguinal, abdominal and thoracic glands were injected with doxorubicin (1.5 μg per gland, Cayman Chemical, 15007), nucleosides (40 μl per gland, Millipore-Sigma, ES-008-D) or Mk-1775 (50 μg per gland, Cayman Chemical, 21266), and left glands were injected with PBS or DMSO (Thermo Scientific, BP231) diluted in PBS.
Mammary gland tissue was fixed in 10% neutral buffered formalin (EMD Millipore, MR0458682) at 4° C. overnight. Fixation was quenched using 0.2% glycine (Fisher Scientific, BP381) in PBS, for 1 h at room temperature. […] Integrated density of nuclear γH2AX and pATR was quantified using ImageJ.

CK8+ luminal cells = experiment: Contralateral intraductal injection: FACS DNA content analysis of CK8+ luminal cells; format: in vivo, mouse
Procedure: Nulliparous analysis was performed using adult (10-12-week-old) female mice. For timed pregnancies and lactation analysis, CD-1 pregnant adult females were obtained from Charles Rivers. Embryos were examined at the time of mammary gland harvesting to confirm pregnancy state. […] Plugged mice were considered to be PD0.5 on the day of the observed plug. All females used in this study were age matched. Mice were anesthetized with isoflurane (VetOne, 501017) Prior to intraductal injections, hair was removed from around the nipples using Nair hair remover. Injections into the duct of the nipple were performed with 33 G needles (Hamilton, 7803-05) and a volume of 40 μl per gland. Right inguinal, abdominal and thoracic glands were injected with doxorubicin (1.5 μg per gland, Cayman Chemical, 15007), nucleosides (40 μl per gland, Millipore-Sigma, ES-008-D) or Mk-1775 (50 μg per gland, Cayman Chemical, 21266), and left glands were injected with PBS or DMSO (Thermo Scientific, BP231) diluted in PBS. Mechanically dissociated inguinal, abdominal, and thoracic mammary fat pads were prepared into cell suspension for flow cytometry or fluorescence-activated cell sorting (FACS). The lymph node was removed from abdominal glands. Glands were chopped using a mechanical tissue chopper and digested for 1 h at 37° C. in digestion media [RPM1 containing 1% FBS, collagenase IA (Sigma, C9891), hyaluronidase (Sigma, H3506) and DNAse I (Worthington, LS002007)]. […] Tissue was further digested using pre-warmed 0.25% Trypsin-EDTA (Thermo Fisher, 25200056), washed, and digested with 5 mg/ml of pre-warmed dispase II (Roche, 4942078001). Red blood cells were lysed using Ammonium Chloride Solution (Stem Cell Technologies, 07850). Cells were washed, resuspended and filter through a 70 μm cell strainer (Falcon, 08-771-2) and processed for downstream applications. For DNA content analysis of the mammary gland CK8^+ epithelial population, mammary gland cells suspension was obtained as described above. Cells were fixed in ice-cold 70% EtOH at a final concentration of 10^6 cells/ml. During fixation, cells were vigorously vortexed for 1 min to avoid the formation of cell aggregates. Cells were washed twice with washing buffer [1×PBS containing 5% FBS and 0.5% tween 20 (Fisher Chemical, BP337500)] and centrifuged at 2,000 rpm for 5 min at 4° C. Cell pellet was incubated for 1 h at room temperature with anti-CK8 (Developmental Studies Hybridoma Lab, TROMA-1), anti-GFP (Thermo Fisher, A01704) or corresponding rat (Thermo-Fisher, 10700) or rabbit (Thermo-Fisher, 10500C) IgG isotype controls. Cells were washed twice and incubated for 1 h at room temperature in darkness with FITC anti-Rat (Thermo Fisher, A24544) or FITC anti-Rabbit (Thermo Fisher, A16030) and APC anti-Rat (Jackson ImmunoResearch, 712-136-153). Cells were washed twice and resuspended in propidium iodide solution [1×PBS containing 25 μg/ml of propidium iodide (Thermo Fisher, P3566) and 100 μg/ml of RNAse (Thermo Fisher, 12091021)]. For DNA content analysis on HC11, cells were washed with 1×DPBS (GIBCO, 14190-250) and harvested using 0.05% Trypsin-EDTA (GIBCO, 25300-062). Cell suspension was washed with 1×DPBS and centrifuged at 1,000 rpm for 5 min at 4° C. Cell pellet was fixed in ice-cold 70% EtOH and then vortexed vigorously to avoid cell aggregates. After fixation, cells were washed with washing buffer [1×PBS (GIBCO, 14190136) supplemented with 5% FBS] and centrifuged at 2,000 rpm for 5 min at 4° C. The pellet was resuspended in propidium iodide solution. Cell suspensions were filtered through a 70 μm cell strainer (Falcon, 08-771-2) and analyzed using a BD LSRII cytometer or a BD FACS Aria II Cell Sorter. Populations were analyzed using FlowJo.

[1] = doxorubicin IDI at PD12.5 vs contralateral DMSO, MGs at PD17.5
[2] = Mk-1775 IDI at PD16.5 vs contralateral DMSO, by LD5

## COc1cccc2c1C(=O)c1c(O)c3c(c(O)c1C2=O)C[C@@](O)(C(=O)CO)C[C@@H]3O[C@H]1C[C@H](N)[C@H](O)[C@H](C)O1 [doxorubicin]
γH2AX
  γH2AX in CK8+ luminal cells: Increased
CK8+ luminal cells; [1]
  decrease in 2C luminal population (in the overall population): 5.23%
  increase in 4C luminal population (in the overall population): 14.86%
  increase in >4C luminal population (in the overall population): 47.1%

## C=CCn1c(=O)c2cnc(Nc3ccc(N4CCN(C)CC4)cc3)nc2n1-c1cccc(C(C)(C)O)n1 [Mk-1775]
CK8+ luminal cells; Mk-1775 IDI (50 μg per gland) at PD16.5 vs contralateral DMSO, at LD2
  decrease in 4C CK8+ population (in the overall population): 19.4%
CK8+ luminal cells; Mk-1775 IDI at PD16.5 vs contralateral DMSO, LD2
  increase in 2C CK8+ population (in the overall population): 7.7%
CK8+ luminal cells; Mk-1775 IDI at PD16.5 vs contralateral DMSO, LD5
  increase in 2C CK8+ population (in the overall population): 12.4%
CK8+ luminal cells; [2]
  decrease in 4C CK8+ population (in the overall population): 3.2%
  decrease in >4C CK8+ population (in the overall population): 16.31%
